Results: patent US20160282364A1, “ASSAY FOR INSULIN-DEGRADING ENZYME (IDE) INHIBITORS” (PRESIDENT AND FELLOWS OF HARVARD COLLEGE, priority 2013, published 2016)
“And” between values parts separate entries of the source, which are not always exact repeats. Identical values can stand only once. Like-named read-outs stand apart in the source and are kept apart here. Ends that are not written are not given here.

Legend:
IDE [1] = conditions: cited from earlier work; for Km / kcat / KM: IDE substrate; for Degradation: degradation kinetics compared to insulin
hIDE WT = biological target: T1, hIDE WT (Homo sapiens, UniProt P14735); test: Small molecule-enzyme mutant complementation study, wild type; assay type: biochemical
T1 construct: The reported N-His6-tagged human IDE42-1019 construct; made in house; host or cells: E. coli Rosetta 2 (DE3) pLysS
T1 sequence (P14735 42-1019): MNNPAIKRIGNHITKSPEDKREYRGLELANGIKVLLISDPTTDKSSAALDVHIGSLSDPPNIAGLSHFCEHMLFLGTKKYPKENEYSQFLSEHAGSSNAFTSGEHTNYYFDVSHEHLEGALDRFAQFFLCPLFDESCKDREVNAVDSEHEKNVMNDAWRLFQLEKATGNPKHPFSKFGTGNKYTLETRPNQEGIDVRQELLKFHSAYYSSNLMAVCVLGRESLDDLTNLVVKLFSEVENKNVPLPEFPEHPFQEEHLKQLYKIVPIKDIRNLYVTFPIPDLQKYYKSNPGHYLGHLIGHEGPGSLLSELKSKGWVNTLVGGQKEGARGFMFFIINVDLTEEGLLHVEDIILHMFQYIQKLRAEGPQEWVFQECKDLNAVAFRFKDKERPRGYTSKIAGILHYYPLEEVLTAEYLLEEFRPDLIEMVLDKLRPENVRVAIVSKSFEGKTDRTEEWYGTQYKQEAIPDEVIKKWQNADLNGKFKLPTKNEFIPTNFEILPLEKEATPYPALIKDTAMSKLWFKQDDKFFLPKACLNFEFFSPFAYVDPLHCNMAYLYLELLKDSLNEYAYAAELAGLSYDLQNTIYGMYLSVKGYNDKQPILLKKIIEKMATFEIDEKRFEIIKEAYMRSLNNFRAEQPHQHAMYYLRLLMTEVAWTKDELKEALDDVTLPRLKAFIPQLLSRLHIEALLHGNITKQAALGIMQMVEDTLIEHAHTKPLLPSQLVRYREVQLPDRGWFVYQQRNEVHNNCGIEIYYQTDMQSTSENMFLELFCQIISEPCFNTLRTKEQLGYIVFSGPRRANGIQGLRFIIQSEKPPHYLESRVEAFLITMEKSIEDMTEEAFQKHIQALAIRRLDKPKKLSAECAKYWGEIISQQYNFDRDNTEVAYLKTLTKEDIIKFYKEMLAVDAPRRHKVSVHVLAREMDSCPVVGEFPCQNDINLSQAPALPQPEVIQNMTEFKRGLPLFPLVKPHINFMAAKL
Excerpt: (§1) Protease assays with fluorogenic peptide substrates. […] All assay data points were obtained in duplicate.
(§2) Site-directed mutagenesis, expression, and purification of human IDE. The reported N-His6-tagged human IDE42-1019 construct was introduced in the expression plasmid pTrcHis-A (Invitrogen) using primers for uracil-specific excision reactions (USER) by Taq (NEB) and Pfu polymerases (PfuTurbo CX®, Agilent). The IDE gene was amplified with the primers 5′-[…]-dU-[…] and 5′-[…] G-dU-[…] (underlined sequences represent overhangs, and italics highlight the PCR priming sequence). Similarly, the pTrcHis-A vector was amplified for USER cloning with the primers 5′-[…] TGA-dU-[…] CCC and 5′-[…]-dU-[…]. Mutant IDE constructs were generated by amplifying the full vector construct with USER cloning primers introducing a mutant overhang (Table 5).
(§3) All PCR products were purified on microcentrifuge membrane columns (MinElute®, Qiagen) and quantified by UV absorbance (NanoDrop). Each fragment (0.2 pmol) was combined in a 10 μL reaction mixture containing 20 units DpnI (NEB), 0.75 units of USER mix (Endonuclease VIII and Uracil-DNA Glycosylase, NEB), 20 mM Tris-acetate, 50 mM potassium acetate, 10 mM magnesium acetate, 1 mM dithiothreitol at pH 7.9 (1× NEBuffer 4). The reactions were incubated at 37° C. for 45 min, followed by heating to 80° C. and slow cooling to 30° C. (0.2° C./s). The hybridized constructs were directly used for heat-shock transformation of chemically competent NEB turbo E. coli cells according to the manufacturer's instructions. Transformants were selected on carbenicillin LB agar, and isolated colonies were cultured overnight in 2 mL LB.
(§4) The plasmid was extracted using a microcentrifuge membrane column kit (Miniprep®, Qiagen), and the sequence of genes and vector junctions were confirmed by Sanger sequencing (Table 6). The plasmid constructs were transformed by heat-shock into chemically-competent expression strain Rosetta 2 (DE3) pLysS E. coli cells (EMD Millipore), and selected on carbenicillin/chloramphenicol LB agar. Cells transformed with IDE pTrcHis A constructs were cultured overnight at 37° C. in 2 XYT media (31 g in 1 L) containing 100 μg/mL ampicillin and 34 μg/mL chloramphenicol. Expression of His6-tagged IDE proteins was induced when the culture measured OD600 ˜0.6 by addition of isopropyl-β-D-1-thiogalactopyranoside (IPTG) to 1 mM final concentration, incubated overnight at 37° C., followed by centrifugation at 10,000 g for 30 min at 4° C.
(§5) Recombinant His6-tagged proteins were purified by Ni(II)-affinity chromatography (IMAC sepharose beads, GE Healthcare®) according to the manufacturer's instructions. The cell pellets were resuspended in pH 8.0 buffer containing 50 mM phosphate, 300 mM NaCl, 10 mM imidazole, 1% Triton X-100 and 1 mM tris(2-carboxyethyl)phosphine hydrochloride (TCEP), and were lysed by probe sonication for 4 min at 4° C., followed by clearing of cell debris by centrifugation at 10,000 g for 25 min at 4° C. The supernatant was incubated with Ni(II)-doped IMAC resin (2 mL) for 3 h at 4° C. The resin was washed twice with the cell resuspension/lysis buffer, and three times with pH 8.0 buffer containing 50 mM phosphate, 300 mM NaCl,50 mM imidazole and 1 mM TCEP. Elution was performed in 2 mL aliquots by raising the imidazole concentration to 250 mM and subsequently to 500 mM in the previous buffer. The fractions were combined and the buffer was exchanged to the recommended IDE buffer (R&D) using spin columns with 100 KDa molecular weight cut off membranes (Millipore). Protein yields were typically ˜10 μg/L, and >90% purity based on gel electrophoresis analysis (Coomassie stained).

hIDE W199F = biological target: T2, hIDE W199F (Homo sapiens, UniProt P14735, W199F); test: Small molecule-enzyme mutant complementation study; assay type: biochemical; conditions: W199F vs hIDE WT, batch 2
T2 construct: The reported N-His6-tagged human IDE42-1019 construct; made in house; host or cells: E. coli Rosetta 2 (DE3) pLysS
T2 sequence (P14735 42-1019 W199F): as the sequence (P14735 42-1019) above, with W158F counted along it
Excerpt: as §1, §2, §3, §4, §5

hIDE F202L = biological target: T3, hIDE F202L (Homo sapiens, UniProt P14735, F202L); test: Small molecule-enzyme mutant complementation study; assay type: biochemical; conditions: F202L vs hIDE WT, batch 1
T3 construct: The reported N-His6-tagged human IDE42-1019 construct; made in house; host or cells: E. coli Rosetta 2 (DE3) pLysS
T3 sequence (P14735 42-1019 F202L): as the sequence (P14735 42-1019) above, with F161L counted along it
Excerpt: as §1, §2, §3, §4, §5

hIDE F202R = biological target: T4, hIDE F202R (Homo sapiens, UniProt P14735, F202R); test: Small molecule-enzyme mutant complementation study; assay type: biochemical; conditions: F202R vs hIDE WT, batch 2
T4 construct: The reported N-His6-tagged human IDE42-1019 construct; made in house; host or cells: E. coli Rosetta 2 (DE3) pLysS
T4 sequence (P14735 42-1019 F202R): as the sequence (P14735 42-1019) above, with F161R counted along it
Excerpt: as §1, §2, §3, §4, §5

hIDE I310R = biological target: T5, hIDE I310R (Homo sapiens, UniProt P14735, I310R); test: Small molecule-enzyme mutant complementation study; assay type: biochemical; conditions: I310R vs hIDE WT, batch 2
T5 construct: The reported N-His6-tagged human IDE42-1019 construct; made in house; host or cells: E. coli Rosetta 2 (DE3) pLysS
T5 sequence (P14735 42-1019 I310R): as the sequence (P14735 42-1019) above, with I269R counted along it
Excerpt: as §1, §2, §3, §4, §5

hIDE A198T = biological target: T6, hIDE A198T (Homo sapiens, UniProt P14735, A198T); test: Small molecule-enzyme mutant complementation study; assay type: biochemical; conditions: A198T vs hIDE WT, batch 2
T6 construct: The reported N-His6-tagged human IDE42-1019 construct; made in house; host or cells: E. coli Rosetta 2 (DE3) pLysS
T6 sequence (P14735 42-1019 A198T): as the sequence (P14735 42-1019) above, with A157T counted along it
Excerpt: as §1, §2, §3, §4, §5

hIDE K364A = biological target: T7, hIDE K364A (Homo sapiens, UniProt P14735, K364A); test: Small molecule-enzyme mutant complementation study; assay type: biochemical; conditions: K364A vs hIDE WT, batch 2
T7 construct: The reported N-His6-tagged human IDE42-1019 construct was introduced in the expression plasmid pTrcHis-A; made in house; host or cells: E. coli Rosetta 2 (DE3) pLysS
T7 sequence (P14735 42-1019 K364A): as the sequence (P14735 42-1019) above, with K323A counted along it
Excerpt: as §1, §2, §3, §4, §5

IDE [2] = conditions: inhibition of insulin degradation, cited from earlier work
IDE [3] = test: Literature survey of IDE substrates, in vitro degradation kinetics; assay type: biochemical; conditions: KM estimated based on IC50 for inhibition of insulin degradation
IDE [4] = biological target: IDE (Homo sapiens, UniProt P14735); test: Protease assay with fluorogenic peptide substrate Mca-[…](Dnp)-OH (IDE species not given); assay type: biochemical; design: The proteases IDE42-1019, recombinant human IDE42-1019 (R&D Systems); conditions: heavy-labeled vs 6bK
IDE (Homo sapiens, UniProt P14735), sequence (P14735 42-1019): as the sequence (P14735 42-1019) above
Experimental: All data points and error bars represent mean±SEM. Significance tests were performed using two-tail Student's t-test, and significance levels shown in the figures are p<0.05 (*) or p<0.01 (**) versus the vehicle-only control group. The in vitro selection of the DNA-templated macrocycle libraryl^16,17 used 20 μg His6-tagged mouse IDE immobilized on cobalt magnetic beads (Dynabeads, Invitrogen). IDE proteolytic activity was assayed with fluorogenic peptide Mca-[…](Dnp)-OH (R&D). IDE inhibition was confirmed using an anti-insulin antibody time-resolved FRET assay (Cysbio), and using an LCMS assay for CGRP cleavage fragments CGRP1-17 and CGRP18-37 in plasma^18. […] Protease assays with fluorogenic peptide substrates. […] (R&D). All assay data points were obtained in duplicate.

Row | Molecule | Km (IDE [1]) | kcat (IDE [1]) | Degradation (IDE [1]) | further results
1 | β-endorphin (1-31) | 13 µM | 0.35 s⁻¹ | Slow | 
2 | amyloid-β peptide(40/42) [Aβ (40, 42)] | 1.23 µM | 0.867 s⁻¹ | Fast | 
3 | dynorphin A (1-10) | 39.4 µM | 0.0623 s⁻¹ |  | 
4 | CC(C)CC1NC(=O)C(CCC(N)=O)NC(=O)C=CC(=O)NC(C(N)=O)CCCCNC(=O)C(Cc2ccc(C(=O)c3ccccc3)cc2)NC1=O (centres unmarked) [Compound 13] |  |  |  | IC50 shift (hIDE WT; batch 1 (reference)): 1.0 fold; IC50 shift (hIDE WT; batch 2 (reference)): 1.0 fold; IC50 shift (hIDE WT; batch 3 (reference)): 1.0 fold; IC50 shift (hIDE W199F): 3.2 fold; IC50 shift (hIDE F202L): 2.3 fold; IC50 shift (hIDE F202R): 4.1 fold; IC50 shift (hIDE I310R): 0.7 fold; IC50 shift (hIDE A198T): 13.6 fold; IC50 shift (hIDE K364A): 10.0 fold
5 | dynorphin A (1-13) (YGGFLRRIRPKLK; Dynorphin A(1-13); UniProt P01213 207-219, looked up) [IDE substrate in vitro] | 40.6 µM | 0.0623 s⁻¹ |  | 
6 | bradykinin (RPPGFSPFR; Bradykinin; UniProt P01042 381-389, looked up) [IDE substrate in vitro] | 4.2 µM |  | Slow | 
7 | dynorphin A (1-9) | 60.5 µM | 0.0055 s⁻¹ |  | 
8 | atrial natriuretic peptide [atrial NP (ANP)] | 0.06 µM |  | Fast | 
9 | kallidin | 7.3 µM |  | Slow | 
10 | relaxin |  |  | Fast | IC50 (IDE [2]; read-out: IC50): 54 nM; Km (IDE [3]): 0.11 µM
11 | dynorphin B (1-9) (YGGFLRRQF; Rimorphin; UniProt P01213 226-234, looked up, fragment) [IDE substrate in vitro] | 26.8 µM | 0.172 s⁻¹ |  | 
12 | relaxin-3 |  |  | Fast | IC50 (IDE [2]; read-out: IC50): 182 nM; Km (IDE [3]): 0.36 µM
13 | amylin (KCNTATCATQRLANFLVHSSNNFGAILSSTNVGSNTY; not fully specified (C-terminus, bridges); cysteine pairing not given here; UniProt P10997 34-70, looked up) [IDE substrate in vitro] | ~0.3 µM |  | Medium | IC50 (IDE [2]; read-out: IC50): 160 nM; Km (IDE [3]): 0.3 µM
14 | dynorphin A (1-17) | 37.4 µM | 0.307 s⁻¹ |  | 
15 | pancreastatin (1-49) (SEALAVDGAGKPGAEEAQDPEGKGEQEHSQQKEEEEEMAVVPQGLFRGG; Pancreastatin; UniProt P10645 272-320, looked up, fragment) [IDE substrate in vitro] | 41.7 µM | 0.177 s⁻¹ | Slow | 
16 | insulin | < 0.03 µM | 0.0253 s⁻¹ | Fast | 
17 | glucagon | 3.5 µM and 3.46 µM | 0.633 s⁻¹ and 0.642 s⁻¹ | Slow | IC50 (IDE [2]): weak
18 | NC(=O)C1CCCCNC(=O)C(Cc2ccc(C(=O)c3ccccc3)cc2)NC(=O)C(CC2CCCCC2)N[13C](=O)[13CH]([13CH2][13CH2][13CH2][13CH2][15NH2])[15NH]C(=O)C=CC(=O)N1 (centres unmarked) [heavy 6bK] |  |  |  | IC50 compared with 6bK (IDE [4]): identical
19 | insulin-like growth factor-1 [IGF-1] |  |  | Slow | KM (IDE [1]): Weak
20 | dynorphin A (1-8) (YGGFLRRI; Dynorphin A(1-8); UniProt P01213 207-214, looked up) [IDE substrate in vitro] | 63.5 µM | 0.011 s⁻¹ |  | 
21 | transforming growth factor-alpha [TGF-α] |  |  | Fast | IC50 (IDE [2]; read-out: IC50): 80 nM; Km (IDE [3]): 0.15 µM
22 | insulin-like growth factor-2 [IGF-2] |  |  | Fast | IC50 (IDE [2]; read-out: IC50): 60 nM; Km (IDE [3]): 0.1 µM
23 | B-type natriuretic peptide [B-type NP (BNP)] |  |  | Slow | IC50 (IDE [2]; read-out: IC50): > 1000 nM; KM (IDE [1]): weak
24 | CC(C)(C)c1ccc(CC2NC(=O)C(CC3CCCCC3)NC(=O)C(CCC(N)=O)NC(=O)C=CC(=O)NC(C(N)=O)CCCCNC2=O)cc1 (centres unmarked) [Compound 9] |  |  |  | IC50 shift (hIDE WT; batch 1 (reference)): 1.0 fold
25 | dynorphin B (1-13) | 18.3 µM | 0.252 s⁻¹ |  | 
26 | somatostatin-14 | 7.5 µM | 0.38 s⁻¹ | Slow | 
27 | growth hormone releasing factor (1-29) | 11.9 µM | 0.39 s⁻¹ | Slow | 
